Where a name gives a salt, the structure may show the parent alone.
How the values were obtained:
[1] = target: T1, vitamin D binding protein (DBP) (Homo sapiens, UniProt P02774); details: cited from earlier work
T1 construct: host or cells: serum
T1 sequence (P02774 17-474): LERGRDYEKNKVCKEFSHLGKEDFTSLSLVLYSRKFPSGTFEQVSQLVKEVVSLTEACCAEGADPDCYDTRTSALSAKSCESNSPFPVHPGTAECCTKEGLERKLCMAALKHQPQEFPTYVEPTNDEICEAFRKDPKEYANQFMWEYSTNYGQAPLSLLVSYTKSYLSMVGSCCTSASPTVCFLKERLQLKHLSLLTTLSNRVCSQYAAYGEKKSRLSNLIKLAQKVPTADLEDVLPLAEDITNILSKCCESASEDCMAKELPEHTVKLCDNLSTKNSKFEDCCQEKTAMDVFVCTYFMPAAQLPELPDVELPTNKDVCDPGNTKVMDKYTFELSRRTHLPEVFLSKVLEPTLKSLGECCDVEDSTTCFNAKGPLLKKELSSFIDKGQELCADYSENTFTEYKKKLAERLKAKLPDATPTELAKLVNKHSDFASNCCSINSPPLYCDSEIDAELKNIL

[2] = tested on: 20-month old Fischer 344 rats; assay: Cerebral edema analysis after cortical contusion brain injury; type: in vivo, rat; details: 4 mg/kg; for edema compared to subjects treated with vehicle: 24 hours post brain injury; for mean % difference edema: brain tissue 24 hours post brain injury, i.p. at 1 h, s.c. at 6 and 24 h
Experimental: The methodology used is described in VanLandingham et al., Neuropharmacology, 2006, 51, 1078-1085.
Sterile surgical procedures were used to prevent animal infection. Rats (20-month old Fischer 344 rats, which are the “human” equivalent of about 60 years old) were anesthetized and maintained on isoflurane and an equivalent amount of […] and O2 for 3 min prior to surgery. After brain contusion, O2 levels were doubled compared to […] and maintained through the reainder of the surgery procedure. A stereotaxic apparatus was used to stabilize the head in a horizontal position. Core body temperature was monitored and maintained at 37° C. using a Harvard homeothermic blanket (Harvard Apparatus, Holliston, Mass.). There was no direct measure used to deterct brain temperature. Blood oxygen and heart rate were maintained using a SurgiVet monitor (SurgiVet, Waukesha, Wis.) and maintained above 90% and 340 bpm respectively. A midline incision was made and the scalp retracted. A bilateral 6-mm craniotomy was performed with surgical drill centered at 3 mm rostral to bregma. The stainless steel impactor was positioned over the MFC at 3.0 mm A/P and 0.0 M/L. These coordinates represent the MFC as described by Paxinos and Watson (The Rat Brain in Stereotaxic Coordinates, Academic Press, San Diego, 1986). The cortical injury was induced using a pneumatically controlled device (Hoffman et al., J. Neurotrauma, 1994, 11, 417-431). Brain impact duration was 0.5 s. using a 5-mm impactor tip with a velocity set at 2.125 m/s and a cortical depth of 2 mm. Following the contusion, bleeding was halded and fascia and scalp were sutured shut. After surgery, animals were allowed to recover from anesthesia on a homeothermic heating blanket in a holding cage until awake. sham surgeries controlled for anesthesia and stress. All surgical procedures were the same, except that sham rates were not given a craniotomy or cortical injury. Previous studies using craniotomy as a control found no differences between shams with or without this procedure. (Goss et al., Pharmacol. Biochem. Behay. 2003, 76(2), 231-242).
These experimental solutions were then diluted 1:1 with sterile water for a final concentration of HBC of 22.5%.
All injections were done at the same time with brain harvesting at 24 h post-injury. Rats in each group were weightd prior to treatment to ensure proper dosage. The first injection at 1 h after surgery was given intraperitoneally to ensure rapid adsorption. All subsequent injections were made subcutaneously for gradual adsorption at 6 and 24 h. Injection times and neurosteroid doses were based on previous results of neurosteroid treatment (Roof et al., Twenty First Annual Meeting of the Society for Neuroscience, Miami Beach Fla., p. 191 and He et al., Exp. Neurol. 2004, 189, 404-412). The sterioids were dissolved in vehicle (22.5% 2-hydroxypropyl-b-cyclodextrin solution) at 4 mg/kg. The sham group received no treatment and injury control group received vehicle only.
At 24 h after traumatic brain injury flresh brains were extracted from the skull and the dorsal cerebrum was separated along the line of the lateral fissure. Four 3-mm coronal sections were cut rostral to caudal, placed in pre-weighed 1.5 mL tubes and re-weighed (wet weight). Tubes were then left uncapped and placed in a vacuum oven set at 60° C. with an atmospheric pressure of 0.3 for 48 h. Following tube recapping, the tissue samples were again weighed (dry weight). Cerebral edema (% water content) was determined as the difference in wet and dry weights divided by wet weight (Roof and Stein Restor. Neurol. Ncurosci., 1992, 4, 425-427). Edema measures are reflective of the difference inwater content between at the average of the two most rostral (injury region) segments and most caudal (occipital cortex) segments of the dorsal sections of the brain.

[3] = tested on: 20-month-old male Fischer 344 rats; assay: Spontaneous locomotor activity (open field) after TBI; type: in vivo, rat; details: 72 hours after injury; normalized to sham
Excerpt: The animals in this study were separated into two groups, vitamin D normal (D-normal) and vitamin D deficient (D-deficient). […] Animals in the D-deficient group were maintained on the diet for at least 21 days prior to surgery. […] For this same reason the null diet was not altered in any other way, and the rats assigned to the D-deficient group were maintained on it until they were killed for harvesting of brain tissue. Since vitamin D is activated by UVB light (280-315 nm wavelength), the overhead lights were modified to not produce radiation in this range.
Animals dehydrated due to blood loss were given 3 mL of lactated Ringer's solution subcutaneously within 6 hours of injury.
Animals were assigned to D-normal or D-deficicnt groups. […] The same assignment was followed for both 24-hour and 72-hour survival groups. […] All drug treatments were dissolved in vehicle, and injection volume was equally proportional to each animal's weight across all groups. The intact sham (SHAM) groups served to provide baseline data and therefore received no injury or injections.
In addition to molecular measures of inflammatory cytokines, the behavioral effects of the various treatments were examined. Since this study was limited to the short term effects on inflammation, only short-term Spontaneous Locomotor Activity was used.

[4] = tested on: E18 rat primary cortical neurons; assay: Glutamate-induced excitotoxic cell death (LDH release and MTT reduction assays); type: cell-based
Excerpt: Lactate dehydrogenase (LDH) release and 3-(4,5-dimethylthiazol-2-yl)-2,5-diphenyltetrazolium bromide (MTT) reduction assays were used to measure cell death. NeuroPureTM E18 primary rat cortical cells were commercially procured (Catalogue # N200200, Genlantis, San Diego, Calif., USA) as micro-surgically dissected regions from day 18 embryonic Sprague-Dawley rat brain. The tissues were processed for culturing according to manufacturer specifications. Briefly, enzymatic pre-treatment of the tissue was done prior to mechanical dissociation by incubating the tissues in sterile NeuroPapain enzyme solution at 30° C. for 30 minutes. Following incubation, the cells were centrifuged and transferred to fresh plating medium, where they were then dissociated into isolated neurons using a P-1000 pipettor with a sterile 1 ml plastic tip (0.8-1.0 mm diameter opening). The cells were again centrifuged and seeded in multi-well plates pre-coated with poly-D-lysine (0.15 ml/cm^2, 50 μg/ml) and maintained at 37° C. in a humidified 5% CO2 atmosphere. All experiments were performed after 9-10 days in culture. Twenty-four hours before glutamate exposure, cultures were pre-treated with both PROG (Cat. #P3972; Sigma Aldrich, St. Louis, Mo., USA) and VDH(Cat. #D1530; Sigma) separately or in combination with VDH at various concentrations. Stock solutions of PROG and VDH were prepared in dimethylsulfoxide (DMSO; Cat. #D2650; […] Glutamate was diluted in phosphate-buffered saline (PBS, pH 7.4). All reagents were filter sterilized before being added to cultures. At Day 11, cortical neurons in fresh media were separated into five treatment groups: (i) control; (ii) 24 hour treatment with 0.5 μM glutamate (Sribnick E A, et al., (2004) J Neurosci Res 76: 688-696); ([…]) with subsequent exposure to glutamate for 24 hours; (iv) 24 hour pre-treatment with VDH (1, 5, 10, 20, 40, 80, 100 nM) with subsequent exposure to glutamate for 24 hours; (v) 24 hour pre-treatment with different combinations of PROG and […]: 20 μM+VDH: 1, 5, 10, 20, 40, 80, 100 nM) with subsequent exposure to glutamate for 24 hours. Two widely accepted assays (LDH release and MTT reduction assay) for the measurement of cell viability were used. These assays are considered very reliable and reproducible with high predictive validity and are widely used in various pharmacological studies ([…], et al., (2002) Endocrinology 143: 205-212.). The LDH assay was performed as follows. […] LDH activity was measured using a Cytotoxicity Detection Kit (Roche Molecular Biochemicals, Indianapolis, Ind., USA) and quantitated by measuring absorbance at 490 nm. Data were normalized against the amount of LDH activity released from vehicle-treated control cultures receiving no glutamate. Neuronal death was also assessed by MTT [3-(4,5-dimethylthiazol-2-yl)-2,5-diphenyltetrazolium bromide] assay, which is based on the cleavage of the tetrazolium ring of the pale yellow MTT into dark blue formazan crystals by mitochondrial dehydrogenase enzyme in viable cells. These blue formazan crystals accumulate within the cells due to their impermeability to cell membrane, and are then solubilized by adding DMSO. The intensity of blue colored formazan solution is directly proportional to the number of surviving cells. Concentrations were determined by photometric analysis. Briefly, 10 μl of MTT were added per well and incubated at 37° C. for 4 hours until purple precipitate was visible. DMSO (50 μl) was added to solubilize the crystals and the absorbance was read at 570 nm.

[5] = tested on: E18 rat primary cortical neurons; assay: Morphological analysis of cortical cultures (phase contrast); type: cell-based; details: glutamate 0.5 μM for 24 h; data not shown
Excerpt: Changes in the morphology of neurons treated with different drugs in various groups were observed using a phase-contrast microscope (Nikon). Primary cultures were mainly observed for neurite outgrowth, a hallmark feature of healthy cells, and the density of healthy cells in different groups.

MAPK (ERK1/2) = assay: MAPK phosphorylation (p-ERK1/2 Western blot) in primary cortical neurons; type: cell-based, rat; details: VDH 100 nM, 30-minute treatment
Experimental: PROG and VDH were added to the primary cultures, as described above, for 30 minutes ([…], et al., (2002) Endocrinology 143: 205-212) and the cells were lysed using RIPA lysis buffer kit (sc-24948, Santa Cruz, Calif., USA). Protein was determined in cell lysates by bicinchoninic acid (BCA) protein assay (Cat. # 23225, Pierce, Rockford, Ill., USA). Cell lysates (40 μg protein each sample) were separated under reducing and denaturing conditions by 12.5% acrylamide Criterion gel (BioRad, Hercules, Calif., USA) at 200V for 1 hour and transferred to a polyvinylidene difluoride (PVDF) membrane at 100V for 30 minutes. The non-specific binding sites of the membrane were blocked with 5% non-fat dry milk in PBS-T (phosphate buffered saline containing 0.05% Tween-20). […] Membranes were then incubated in horseradish peroxidase (HRP)-conjugated secondary antibody (Goat anti-rabbit IgG; 074-1506, KPL, Gaithersburg, Md., USA). β-actin was probed as a loading control. Blots were developed using a chemiluminescent substrate (Pierce) for 5 minutes.

[6] = Phase 1 and Phase 2 human trials; cited from earlier work
[7] = tested on: rat model of peripheral nerve injury; details: 100 IU/kg/day following nerve injury; cited from earlier work

Q: For `C=C1CC[C@H](O)C/C1=C/C=C1\CCC[C@]2(C)[C@@H]([C@H](C)CCCC(C)(C)O)CC[C@@H]12` [Compound 25OHD3, 25-hydroxyvitamin D3], which “fraction of total in serum bound by DBP” value [1] is on record?
A: Its value is “about 88%”.

Q: What does the source list for `CC(=O)[C@H]1CCC2C3CCC4=C[C@@H](OC(=O)[C@@H](N)C(C)C)CC[C@]4(C)C3CC[C@@]21C` (stereo partly drawn) [Compound 31, 3β-L-Valine-progesterone-HCl]?
A: edema compared to subjects treated with vehicle [2]: decrease in edema; mean % difference edema [2]: 2.2%

Q: With `CC(C)[C@H](N)C(=O)O[C@@H](C)[C@H]1CCC2C3CCC4=CC(=O)CC[C@]4(C)C3CC[C@@]21C` (stereo partly drawn) [Compound 57, 20-S-L-Valine-progesterone HCl salt] as the compound, how does the “edema compared to subjects treated with vehicle” value [2] read?
A: Its value is “decrease in edema”.

Q: And the “mean % difference edema” value [2]?
A: The value was 3.3%.

Q: What does the source list for `CC(=O)[C@H]1CCC2C3CCC4=C/C(=N/OC(=O)[C@@H](N)Cc5c[nH]c6ccccc56)CC[C@]4(C)C3CC[C@@]21C` (stereo partly drawn) [Compound 79, O-L-Tryptophan-C3-oxime-progesterone HCl salt]?
A: edema compared to subjects treated with vehicle [2]: decrease in edema; mean % difference edema [2]: 1.9%

Q: For `C=C1/C(=C\C=C2/CCC[C@]3(C)[C@@H]([C@H](C)CCCC(C)(C)O)CC[C@@H]23)C[C@@H](O)C[C@@H]1O` [VDH, 1,25-dihydroxyvitamin D3], which “spontaneous locomotor activity (total distance, resting, stereotypy, movement time)” value [3] is on record?
A: Its value is “little or no benefit”.

Q: And the “best (most effective) concentration alone against glutamate-induced neuronal death” value ([4]; LDH and MTT assays)?
A: Its value is 0.1 µM.

Q: What about the “shape of concentration response curve for neuroprotection against glutamate toxicity” value ([4]; VDH alone, or PROG 20 μM with VDH 1-100 nM) of the same compound?
A: Its value is “U-shaped”.

Q: And the “neuroprotection against glutamate toxicity compared to vehicle-only group” value ([4]; VDH higher concentrations (1-10 μM))?
A: The value was “did not prevent neuronal loss”.

Q: And the “neuroprotection against glutamate toxicity compared to vehicle-only group” value ([4]; VDH lower concentrations (0.001-0.5 μM), P<0.001)?
A: The value was “significantly protective”.

Q: What about the “morphology of neurons (neuronal processes, number of neurons) after glutamate” value [5] of the same compound?
A: The value was “rescued neurons”.

Q: And the “increase in p-ERK1/2 level compared to control group” value (MAPK (ERK1/2))?
A: Its value is 1.7 ×.

Q: Which tolerability [6] does the source give for `CC(=O)[C@H]1CC[C@H]2[C@@H]3CC[C@H]4C[C@](C)(O)CC[C@]4(C)[C@H]3CC[C@]12C` [ganaxolone, 3a-hydroxy-3b-methyl-5a-pregnan-20-one] here?
A: Its tolerability is “well tolerated”.

Q: For `C=C1CC[C@H](O)C/C1=C/C=C1\CCC[C@]2(C)[C@@H]([C@H](C)/C=C/[C@H](C)C(C)C)CC[C@@H]12` [vitamin D2, ergocalciferol], which “axogenesis and axon diameter” value [7] is on record?
A: Its value is “significantly increased axogenesis and axon diameter”.
